In paper PMC5513037, “Examining the influence of specificity ligands and ATP-competitive ligands on the overall effectiveness of bivalent kinase inhibitors” (Proteome Science, 2017):
Each block holds one molecule with its values, some of them ahead of it.

Tests used:
Assay type in all cases: binding
GSK3A = target: T1, GSK3A (Homo sapiens, UniProt P49840); test: KAM-matrix competition in K562 lysate
T1 construct: endogenous in cells; host or cells: K562
Description: (§1) For synthesis of KAM-derivatized resin, packed NHS-activated sepharose 4 fast flow resin (volume = 2 mL; GE Healthcare) was washed with anhydrous DMSO (3 × 10 mL). To the washed NHS-activated sepharose resin was added 0.5 mM KAM in anhydrous DMSO (8 mL; 2 μmol compound/mL of resin), followed by the addition of triethylamine (30 μL). The reaction mixture was vortexed to mix and pelleted by centrifugation (100 x g, 2 min). An aliquot of the supernatant (50 μL) was saved for LC/MS analysis. The reaction mixture was allowed incubate overnight at room temp with end-over-end rotating agitation. On the following day, the reaction mixture was pelleted by centrifugation (100 x g, 2 min). An aliquot of the supernatant (50 μL) was saved for LC/MS analysis. […] 2-(2-Aminoethoxy)ethanol (100 μL; Sigma-Aldrich) was added to the reaction mixture, vortexed, and incubate overnight at room temp with end-over-end agitation. The KAM-derivatized resin was then washed with anhydrous DMSO (3 × 10 mL) and 95% EtOH (3 × 10 mL).
(§2) Data were visualized for further analysis using Spotfire DXP.

NEK9 = target: T2, NEK9 (Homo sapiens, UniProt Q8TD19); test: KAM-matrix competition in K562 lysate
T2 construct: endogenous in cells; host or cells: K562
T2 sequence (Q8TD19 1-979): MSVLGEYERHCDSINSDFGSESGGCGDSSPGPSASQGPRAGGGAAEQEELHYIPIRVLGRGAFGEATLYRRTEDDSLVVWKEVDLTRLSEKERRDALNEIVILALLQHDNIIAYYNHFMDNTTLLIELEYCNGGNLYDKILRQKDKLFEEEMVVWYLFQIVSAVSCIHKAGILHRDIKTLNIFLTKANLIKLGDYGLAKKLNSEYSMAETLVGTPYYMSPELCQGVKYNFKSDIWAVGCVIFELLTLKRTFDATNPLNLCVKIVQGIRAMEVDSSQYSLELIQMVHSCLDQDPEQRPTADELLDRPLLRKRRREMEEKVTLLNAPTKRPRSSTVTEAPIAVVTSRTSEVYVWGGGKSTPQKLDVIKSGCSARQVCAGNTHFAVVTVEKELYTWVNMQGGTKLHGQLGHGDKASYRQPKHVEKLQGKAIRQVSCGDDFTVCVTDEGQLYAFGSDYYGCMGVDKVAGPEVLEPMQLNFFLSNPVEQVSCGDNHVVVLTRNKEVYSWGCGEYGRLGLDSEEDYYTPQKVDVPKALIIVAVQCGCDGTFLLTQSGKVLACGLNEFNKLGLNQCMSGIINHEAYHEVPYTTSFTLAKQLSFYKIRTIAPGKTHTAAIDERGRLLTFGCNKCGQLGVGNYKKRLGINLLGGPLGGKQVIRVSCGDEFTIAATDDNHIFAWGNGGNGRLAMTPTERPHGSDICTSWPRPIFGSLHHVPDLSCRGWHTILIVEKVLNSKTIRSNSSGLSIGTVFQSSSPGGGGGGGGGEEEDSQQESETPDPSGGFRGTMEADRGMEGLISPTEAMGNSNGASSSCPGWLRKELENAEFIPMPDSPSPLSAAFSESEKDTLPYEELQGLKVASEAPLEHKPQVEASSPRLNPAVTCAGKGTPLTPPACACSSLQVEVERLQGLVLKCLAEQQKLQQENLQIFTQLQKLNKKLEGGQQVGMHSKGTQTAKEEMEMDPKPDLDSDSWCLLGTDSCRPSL
Description: as §1, §2

AAK1 = target: T3, AAK1 (Homo sapiens, UniProt Q2M2I8); test: KAM-matrix competition in K562 lysate
T3 construct: endogenous in cells; host or cells: K562
Description: as §1, §2

CHD5 = target: T4, CHD5 (Homo sapiens, UniProt Q8TDI0); test: Imatinib-matrix competition in K562 lysate; conditions: read-out: RB50 (the source's name)
T4 construct: endogenous in cells; host or cells: K562
Text: as §2

BRD4 = target: T5, BRD4 (Homo sapiens, UniProt O60885); test: Imatinib-matrix competition in K562 lysate; conditions: read-out: RB50 (the source's name)
T5 construct: endogenous in cells; host or cells: K562
Text: as §2

TTN = target: T6, TTN (Homo sapiens, UniProt Q8WZ42); test: Imatinib-matrix competition in K562 lysate; conditions: read-out: RB50 (the source's name)
T6 construct: endogenous in cells; host or cells: K562
Text: as §2

PBK = target: T7, PBK (Homo sapiens, UniProt Q96KB5); test: Imatinib-matrix competition in K562 lysate; conditions: read-out: RB50 (the source's name)
T7 construct: endogenous in cells; host or cells: K562
T7 sequence (Q96KB5 1-322): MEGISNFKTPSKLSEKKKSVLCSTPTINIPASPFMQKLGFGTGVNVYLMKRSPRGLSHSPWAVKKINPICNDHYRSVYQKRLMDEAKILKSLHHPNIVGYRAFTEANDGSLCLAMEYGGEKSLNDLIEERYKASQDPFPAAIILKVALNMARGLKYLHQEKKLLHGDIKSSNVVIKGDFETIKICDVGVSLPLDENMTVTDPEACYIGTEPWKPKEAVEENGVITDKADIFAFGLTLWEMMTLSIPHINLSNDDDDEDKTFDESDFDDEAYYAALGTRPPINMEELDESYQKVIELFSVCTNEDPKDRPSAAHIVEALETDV
Text: as §2

CDC7 = target: T8, CDC7 (Homo sapiens, UniProt O00311); test: Imatinib-matrix competition in K562 lysate; conditions: read-out: RB50 (the source's name)
T8 construct: endogenous in cells; host or cells: K562 lysate
Text: as §2

RPS6KB2 = target: T9, RPS6KB2 (Homo sapiens, UniProt Q9UBS0); test: Imatinib-matrix competition in K562 lysate; conditions: read-out: RB50 (the source's name)
T9 construct: endogenous in cells; host or cells: K562
Text: as §2

Structure (SMILES): N#CCc1ccc(Nc2nc(NCCCN)cc(Nc3cc(C4CC4)[nH]n3)n2)cc1 [KAM]
median Log10 fold change (GSK3A; 0.001 uM KAM): 0.002359
median Log10 fold change (GSK3A; 0.01 uM KAM): -0.1849
median Log10 fold change (GSK3A; 0.1 uM KAM): -0.4791
median Log10 fold change (GSK3A; 1 uM KAM): -0.5469
median Log10 fold change (GSK3A; 10 uM KAM): -0.4904
IC50 (GSK3A; GSK3A, KAM-based affinity matrix, K562 lysates, read-out: RB50 (the source's name)): 0.037 µM
median Log10 fold change (NEK9; 0.001 uM KAM): 0.04943
median Log10 fold change (NEK9; 0.01 uM KAM): -0.06045
median Log10 fold change (NEK9; 0.1 uM KAM): -0.3899
median Log10 fold change (NEK9; 1 uM KAM): -0.6054
median Log10 fold change (NEK9; 10 uM KAM): -0.6016
IC50 (NEK9; NEK9, KAM-based affinity matrix, K562 lysates, read-out: RB50 (the source's name)): 0.086 µM
median Log10 fold change (AAK1; 0.001 uM KAM): -0.03432
median Log10 fold change (AAK1; 0.01 uM KAM): -0.41
median Log10 fold change (AAK1; 0.1 uM KAM): -0.6175
median Log10 fold change (AAK1; 1 uM KAM): -0.6778
median Log10 fold change (AAK1; 10 uM KAM): -0.7219
IC50 (AAK1; AAK1, KAM-based affinity matrix, K562 lysates, read-out: RB50 (the source's name)): 0.008 µM

IC50 (CHD5): > 10 µM
IC50 (BRD4): > 10 µM
IC50 (TTN): > 10 µM
IC50 (PBK): > 10 µM
IC50 (CDC7): > 10 µM
IC50 (RPS6KB2): > 10 µM
Structure (SMILES): Cc1ccc(NC(=O)c2ccc(CN3CCN(C)CC3)cc2)cc1Nc1nccc(-c2cccnc2)n1 [Imatinib]
